{"source": "ChEMBL document CHEMBL1129415", "about": "“Structure-activity relationship studies on benzofuran analogs of propafenone-type modulators of tumor cell multidrug resistance” (J Med Chem, 1996)", "key": {"[1]": {"assay": "Partition coefficient (logP)", "type": "physicochemical", "settings": "octanol/water"}, "CCRF-CEM [2]": {"test_system": "CCRF-CEM", "assay": "Effective dose against CCRF-CEM vcr 100 cells by using MTT assay", "type": "functional, Homo sapiens"}, "CCRF-CEM [3]": {"test_system": "CCRF-CEM"}, "CCRF-CEM [4]": {"test_system": "CCRF-CEM", "assay": "Compound was tested for effective dose against CCRF-CEM vcr 100 cells by using MTT assay; na=not active", "type": "functional, cell-based", "settings": "Homo sapiens"}, "CCRF-CEM [5]": {"test_system": "CCRF-CEM", "settings": "Homo sapiens"}}, "note": "Calls of active or inactive are those of the source. The calls are words filed in the database; no cut-off is given here.", "data": [{"smiles": "O=C(CCc1ccccc1)c1ccccc1OCC(O)CN1CCCCC1", "note": "(stereo not drawn)", "values": [{"measurement": "logP", "setting": "[1]", "result": 3.67}, {"measurement": "ED50", "setting": "CCRF-CEM [2]", "result": 290, "unit": "nM"}, {"measurement": "ED50", "setting": "CCRF-CEM [3]", "result": 1.65, "unit": "uM l-1"}]}, {"smiles": "CC(=O)c1ccccc1OCC(O)CN1CCN(c2ccc(F)cc2)CC1", "note": "(stereo not drawn)", "values": [{"measurement": "logP", "setting": "[1]", "result": 2.67}, {"measurement": "ED50", "setting": "CCRF-CEM [2]", "result": 890, "unit": "nM"}, {"measurement": "ED50", "setting": "CCRF-CEM [3]", "result": 8.61, "unit": "uM l-1"}]}, {"smiles": "O=C(CCc1ccccc1)c1ccccc1OCC(O)CN1CCOCC1", "note": "(stereo not drawn)", "values": [{"measurement": "logP", "setting": "[1]", "result": 2.54}, {"measurement": "ED50", "setting": "CCRF-CEM [2]", "result": 1490, "unit": "nM"}, {"measurement": "ED50", "setting": "CCRF-CEM [3]", "result": 13.56, "unit": "uM l-1"}]}, {"smiles": "CCC(=O)c1ccccc1OCC(O)CN1CCOCC1", "note": "(stereo not drawn)", "values": [{"measurement": "logP", "setting": "[1]", "result": 0.94}, {"measurement": "ED50", "setting": "CCRF-CEM [4]", "result": "inactive"}, {"measurement": "ED50", "setting": "CCRF-CEM [5]", "result": "inactive"}]}, {"smiles": "O=C(CCc1ccccc1)c1ccccc1OCC(O)CN1CCCC1", "note": "(stereo not drawn)", "values": [{"measurement": "logP", "setting": "[1]", "result": 3.26}, {"measurement": "ED50", "setting": "CCRF-CEM [2]", "result": 520, "unit": "nM"}, {"measurement": "ED50", "setting": "CCRF-CEM [3]", "result": 2.55, "unit": "uM l-1"}]}, {"smiles": "CC(C)NCCc1oc2ccccc2c1CCc1ccccc1", "values": [{"measurement": "logP", "setting": "[1]", "result": 4.54}, {"measurement": "ED50", "setting": "CCRF-CEM [2]", "result": 1100, "unit": "nM"}, {"measurement": "ED50", "setting": "CCRF-CEM [3]", "result": 5.8, "unit": "uM l-1"}]}, {"smiles": "COc1ccccc1N1CCN(CC(O)c2oc3ccccc3c2CCc2ccccc2)CC1", "note": "(stereo not drawn)", "values": [{"measurement": "logP", "setting": "[1]", "result": 5.32}, {"measurement": "ED50", "setting": "CCRF-CEM [2]", "result": 210, "unit": "nM"}, {"measurement": "ED50", "setting": "CCRF-CEM [3]", "result": 0.46, "unit": "uM l-1"}]}, {"smiles": "CCCN(C)CC(O)COc1ccccc1C(=O)CCc1ccccc1", "note": "(stereo not drawn)", "values": [{"measurement": "logP", "setting": "[1]", "result": 3.77}, {"measurement": "ED50", "setting": "CCRF-CEM [2]", "result": 270, "unit": "nM"}, {"measurement": "ED50", "setting": "CCRF-CEM [3]", "result": 1.36, "unit": "uM l-1"}]}, {"smiles": "CC(C)N(CC(O)COc1ccccc1C(=O)CCc1ccccc1)C(C)C", "note": "(stereo not drawn)", "values": [{"measurement": "logP", "setting": "[1]", "result": 4.25}, {"measurement": "ED50", "setting": "CCRF-CEM [2]", "result": 290, "unit": "nM"}, {"measurement": "ED50", "setting": "CCRF-CEM [3]", "result": 0.61, "unit": "uM l-1"}]}, {"smiles": "O=C(CCc1ccccc1)c1ccccc1OCC(O)CN1CCN(c2ccc(F)cc2)CC1", "note": "(stereo not drawn)", "values": [{"measurement": "logP", "setting": "[1]", "result": 4.93}, {"measurement": "ED50", "setting": "CCRF-CEM [2]", "result": 150, "unit": "nM"}, {"measurement": "ED50", "setting": "CCRF-CEM [3]", "result": 0.16, "unit": "uM l-1"}]}, {"smiles": "CCCNCCc1oc2ccccc2c1CCc1ccccc1", "values": [{"measurement": "logP", "setting": "[1]", "result": 4.71}, {"measurement": "ED50", "setting": "CCRF-CEM [2]", "result": 870, "unit": "nM"}, {"measurement": "ED50", "setting": "CCRF-CEM [3]", "result": 2.9, "unit": "uM l-1"}]}, {"smiles": "O=C(CCc1ccccc1)c1ccccc1OCC(O)CNCc1ccccc1", "note": "(stereo not drawn)", "values": [{"measurement": "logP", "setting": "[1]", "result": 4.3}, {"measurement": "ED50", "setting": "CCRF-CEM [2]", "result": 190, "unit": "nM"}, {"measurement": "ED50", "setting": "CCRF-CEM [3]", "result": 0.41, "unit": "uM l-1"}]}, {"smiles": "COc1ccccc1N1CCN(CC(=O)c2oc3ccccc3c2CCc2ccccc2)CC1", "values": [{"measurement": "logP", "setting": "[1]", "result": 5.05}, {"measurement": "ED50", "setting": "CCRF-CEM [2]", "result": 2020, "unit": "nM"}, {"measurement": "ED50", "setting": "CCRF-CEM [3]", "result": 4.96, "unit": "uM l-1"}]}, {"smiles": "CCN(CC)CC(O)COc1ccccc1C(=O)CCc1ccccc1", "note": "(stereo not drawn)", "values": [{"measurement": "logP", "setting": "[1]", "result": 3.62}, {"measurement": "ED50", "setting": "CCRF-CEM [2]", "result": 390, "unit": "nM"}, {"measurement": "ED50", "setting": "CCRF-CEM [3]", "result": 1.4, "unit": "uM l-1"}]}, {"smiles": "CCCNCC(O)COc1ccccc1C(=O)CCc1ccccc1", "note": "(stereo not drawn) [PROPAFENONE]", "values": [{"measurement": "ED50", "setting": "CCRF-CEM [3]", "result": 3.55, "unit": "uM l-1"}]}, {"smiles": "CCCNCC(O)c1oc2ccccc2c1CC", "note": "(stereo not drawn)", "values": [{"measurement": "logP", "setting": "[1]", "result": 3.1}, {"measurement": "ED50", "setting": "CCRF-CEM [2]", "result": 4190, "unit": "nM"}, {"measurement": "ED50", "setting": "CCRF-CEM [3]", "result": 69.6, "unit": "uM l-1"}]}, {"smiles": "CN(C)CC(O)COc1ccccc1C(=O)CCc1ccccc1", "note": "(stereo not drawn)", "values": [{"measurement": "logP", "setting": "[1]", "result": 2.94}, {"measurement": "ED50", "setting": "CCRF-CEM [2]", "result": 820, "unit": "nM"}, {"measurement": "ED50", "setting": "CCRF-CEM [3]", "result": 7.12, "unit": "uM l-1"}]}, {"smiles": "Cc1ccccc1N1CCN(CC(O)COc2ccccc2C(=O)CCc2ccccc2)CC1", "note": "(stereo not drawn)", "values": [{"measurement": "logP", "setting": "[1]", "result": 5.26}, {"measurement": "ED50", "setting": "CCRF-CEM [2]", "result": 50, "unit": "nM"}, {"measurement": "ED50", "setting": "CCRF-CEM [3]", "result": 0.06, "unit": "uM l-1"}]}, {"smiles": "COc1ccc(N2CCN(CC(O)COc3ccccc3C(=O)CCc3ccccc3)CC2)cc1", "note": "(stereo not drawn)", "values": [{"measurement": "logP", "setting": "[1]", "result": 4.65}, {"measurement": "ED50", "setting": "CCRF-CEM [2]", "result": 110, "unit": "nM"}, {"measurement": "ED50", "setting": "CCRF-CEM [3]", "result": 0.28, "unit": "uM l-1"}]}, {"smiles": "CCCNCC(O)c1oc2ccccc2c1CCc1ccccc1", "note": "(stereo not drawn)", "values": [{"measurement": "logP", "setting": "[1]", "result": 4.07}, {"measurement": "ED50", "setting": "CCRF-CEM [2]", "result": 1800, "unit": "nM"}, {"measurement": "ED50", "setting": "CCRF-CEM [3]", "result": 13.61, "unit": "uM l-1"}]}]}
